Tests used:
E. coli Dgt = target: T1, E. coli Dgt (Escherichia coli, UniProt P15723); assay: PNP/xanthine oxidase coupled dGTPase assay, A297; assay type: biochemical
T1 sequence (P15723 1-505): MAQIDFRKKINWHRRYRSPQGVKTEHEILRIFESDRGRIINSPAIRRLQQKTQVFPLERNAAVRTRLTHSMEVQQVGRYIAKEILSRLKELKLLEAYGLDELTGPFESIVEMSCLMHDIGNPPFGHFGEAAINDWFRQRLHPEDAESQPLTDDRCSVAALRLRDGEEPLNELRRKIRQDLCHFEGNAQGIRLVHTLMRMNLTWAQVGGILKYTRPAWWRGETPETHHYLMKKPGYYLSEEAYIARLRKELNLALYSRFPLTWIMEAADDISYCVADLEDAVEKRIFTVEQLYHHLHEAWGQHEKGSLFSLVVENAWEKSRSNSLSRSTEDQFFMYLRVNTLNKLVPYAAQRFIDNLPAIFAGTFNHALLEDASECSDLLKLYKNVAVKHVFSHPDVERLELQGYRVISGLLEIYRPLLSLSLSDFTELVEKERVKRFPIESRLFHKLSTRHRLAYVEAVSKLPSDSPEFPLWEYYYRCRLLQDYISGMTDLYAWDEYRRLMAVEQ

Dgt–Gp1.2 complex = target: T2, Dgt–Gp1.2 complex (Escherichia coli; Escherichia phage T7, UniProt P03780+P15723); assay: PNP/xanthine oxidase coupled dGTPase assay, A297; assay type: biochemical
T2 sequence (P15723 1-505): T1 sequence (P15723 1-505)
T2 sequence (P03780 2-85): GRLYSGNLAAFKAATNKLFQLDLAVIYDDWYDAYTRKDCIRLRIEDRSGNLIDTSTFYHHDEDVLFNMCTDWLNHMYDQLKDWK

Ki (E. coli Dgt): 120 ± 50 µM
IC50 (Dgt–Gp1.2 complex): 0.31 ± 0.05 µM
SMILES: Nc1nc2c(ncn2[C@@H]2O[C@H](COP(=O)(O)OP(=O)(O)OP(=O)(O)O)[C@@H](O)[C@H]2O)c(=O)[nH]1 [GTP]

— paper PMC9478638 (Proceedings of the National Academy of Sciences of the …, 2022)
